“Also recorded” adds a separate entry of the source.
B1: RSPO1: Wnt agonist R-spondin 1, supplied as 25% conditioned medium (protein, UniProt Q2MKA7 21-263, looked up)
R-spondin-1: SRGIKGKRQRRISAEGSQACAKGCELCSEVNGCLKCSPKLFILLERNDIRQVGVCLPSCPPGYFDARNPDMNKCIKCKIEHCEACFSHNFCTKCKEGLYLHKGRCYPACPEGSSAANGTMECSSPAQCEMSEWSPWGPCSKKQQLCGFRRGSEERTRRVLHAPVGDHAACSDTKETRRCTVRRVPCPEGQKRRKGGQGRRENANRNLARKESKEAGAGSRRRKGQQQQQQQGTVGPLTSAGPA
modifications: conditioned medium
notes: Wnt agonist R-spondin 1, supplied as 25% conditioned medium

Columns and labels:
[1] = system: human ectocervical organoids; test: Human ectocervical organoid culture: formation, growth, differentiation; type: cell-based; conditions: for formation and expansion of squamous stratified organoids from single ectocervical stem cells: Wnt3a and RSPO1 together present in culture medium, human
Procedure: The medium consisted of ADF, 12 mM HEPES and 1% GlutaMax, supplemented with 1% B27, 1% N2, 0.5 μg/ml hydrocortisone (Sigma, #H0888-1G), 10 ng/ml human EGF (Invitrogen, #PHG0311), 100 ng/ml human noggin (Peprotech; #120-10C), 100 ng/ml human FGF-10 (Peprotech, #100-26-25), 1.25 mM N-acetyl-L-cysteine, 10 mM nicotinamide, 2 μM TGF-β R kinase Inhibitor IV, 10 μM ROCK inhibitor (Y-27632), 10 μM forskolin (Sigma, F6886) and 1% penicillin/streptomycin.
(§1) Cells isolated from tissue or the stem cells grown in 2D culture were mixed with 50 μl of ice cold Matrigel (BD, #356231) at a density of 20,000 cells, and the Matrigel droplet was placed in a pre-warmed 24-well plate and allowed to polymerize for 10 min at 37° C. The Matrigel droplet was then overlaid with 500 μl of pre-warmed human ecto- or endocervical medium. Cultures were kept at 37° C., 5% CO2 in a humidified incubator for 2-3 weeks and medium replaced every four days. For passaging the organoids, Matrigel was first dissolved by adding 1 ml of ice cold ADF and pipetting up and down 5 times. Organoids were collected in a 15 ml Falcon tube and a further 4 ml of ice cold ADF medium was added and organoids resuspended well to completely dissolve the Matrigel, followed by centrifugation at 300×g for 5 mins at 4° C. Medium was discarded and the ectocervical and mouse organoids were incubated with 1 ml of TrypLE Express for 30 min at 37° C. followed by mechanical fragmentation using a fire-polished glass Pasteur pipette by vigorous pipetting (8-10 times) to generate single cells. The single cells were then seeded at a 1:10 ratio back into Matrigel for expanding and culturing. Endocervical organoids were subjected to mechanical fragmentation as described above after centrifugation to generate fragments that were seeded back into Matrigel at 1:5 ratio. Matrigel was allowed to polymerize for 10 min at 37° C., overlaid with pre-warmed medium and cultured as described above.
(§2) Stem cells were counted and a defined number resuspended in 50 μl of Matrigel to generate organoids as described above. Between 2-3 weeks after plating images were taken of the whole well and the number and area of organoids formed were determined using ImageJ to calculate organoid forming efficiency.
Organoids were washed with cold PBS five times to remove Matrigel before fixing with 4% paraformaldehyde for 1 h at room temperature (RT) followed by washing with PBS twice. Organoids were then subjected to dehydration in an ascending ethanol series followed by isopropanol and acetone for 20 min each. The dehydrated organoids were paraffin embedded and 5 μm sections cut on a Microm HM 315 microtome. Mouse and human tissues were extensively washed with PBS and fixed using 4% PFA overnight at RT. Samples were subjected to dehydration in an ascending ethanol series followed by isopropanol and xylene (60 mins each) followed by paraffinization using a Leica TP1020 tissue processor. The tissue was embedded and 5 μm sections cut on a microtome. For immunostaining, paraffin sections were deparaffinized and rehydrated, followed by treatment with antigen retrieval solution (Dako, #S1699). Sections were blocked using blocking buffer (1% BSA and 2% FCS in PBS) for 1 h at RT. Primary antibodies were diluted in blocking buffer and incubated for 90 min at RT followed by five PSB washes before 1 h incubation with secondary antibodies diluted in blocking buffer along with Hoechst or Draq5. Sections were washed with PBS five times and mounted using Mowiol. […]

[2] = system: mouse ectocervical organoids; test: Mouse ectocervical organoid culture: formation and expansion; type: cell-based; conditions: for formation and expansion of squamous stratified organoids from single ectocervical stem cells: Wnt3a and RSPO1 together present in culture medium, mouse; for effect of presence or absence of Wnt pathway activators on murine organoid culture: murine ectocervical organoid medium
Procedure: Cervical cells were cultured in ADF medium (Invitrogen, #12634) supplemented with 12 mM HEPES (Invitrogen, #15630-056), 1% GlutaMax (Invitrogen, #35050-038), 1% B27 (Invitrogen, #17504-044), 1% N2 (Invitrogen, #17502048), 50 ng/ml mouse epidermal growth factor (EGF) (Invitrogen, #PMG8043), 100 ng/ml mouse noggin (Peprotech, #250-38-100), 100 ng/ml human fibroblast growth factor (FGF)-10 (Peprotech, #100-26-25), 1.25 mM N-acetyl-L-cysteine (Sigma, #A9165-5G), 10 mM nicotinamide, (Sigma, #N0636), 2 μM TGF-β R Kinase Inhibitor IV (Calbiochem, #616454), 10 μM ROCK inhibitor (Y-27632) (Sigma, #Y0503), 1% penicillin/streptomycin (Gibco, #15140-122) with or without 25% Wnt3A- and 25% R-spondin1-conditioned medium, as described in Willert et al (46) and Farin et al (47).
as §1, §2

Row | Molecule | organoid growth (area of organoids) ([1]; grown in presence of γ-secretase inhibitor (Notch inhibition), FIG. 3H, 11D) | proliferation of organoids (Ki67) ([1]; presence of γ-secretase inhibitor, FIG. 3I) | differentiation and stratification of organoids ([1]; presence of γ-secretase inhibitor, immunolabelling CDH1, Ki67, p63, FIG. 3I) | formation and expansion of squamous stratified organoids from single ectocervical stem cells [1] | formation and expansion of squamous stratified organoids from single ectocervical stem cells [2] | effect of presence or absence of Wnt pathway activators on murine organoid culture [2]
1 | C[C@H](NC(=O)Cc1cc(F)cc(F)c1)C(=O)N[C@@H]1C(=O)N(C)c2ccccc2-c2ccccc21 [DBZ] | reduced organoid growth | reduces proliferation | failed to differentiate and stratify; also recorded: prevents differentiation | – | – | –
2 | Wnt3a | – | – | – | detrimental | detrimental | not to substantially effect
3 | B1 | – | – | – | detrimental | detrimental | not to substantially effect

From patent US20210355450A1, “CERVICAL CANCER ORGANOIDS” (Max-Planck-Gesellschaft zur Förderung der Wissenschaften …, priority 2018, published 2021)
